# Counter-ions that a name gives are not always drawn.
# Tests used:
# [1] = Bioavailability by oral administration; format: in vivo
# [2] = system: experimental autoimmune encephalomyelitis (EAE) model; settings: mice; cited from earlier work
# [3] = system: experimental autoimmune encephalomyelitis (EAE) model; assay: Pharmacodynamics on EAE model (MOG 35-55 induced), EAE score and H&E/LFB staining of cervical spinal cord; format: in vivo, C57BL/6 mice; settings: for incidence of EAE: intragastric administration (FIG. 5, FIG. 6)
# Mice = assay: Single-dose toxicity in mice; format: in vivo; settings: for deaths: three males and three females
# Method: Mice were divided into four groups for each having three males and three females and treated by compound 1 at a single-dose of 200, 600, 1800 and 5400 mg/kg, respectively.
# Sprague Dawley rats = assay: 7-day repeated intragastric toxicity in rats; format: in vivo; settings: intragastrically daily at 75, 150, 300 mg/kg for 7 consecutive days, 3 males and 3 females per group
# Method: Sprague Dawley rats, each group having 3 males and 3 females were administrated intragastrically daily at 75, 150, 300 mg/kg respectively for 7 consecutive days.
# [4] = 30 mg/kg/day intragastrically, vs EAE model group
# [5] = crystal type A, 15 mg/kg once daily oral gavage, vs EAE model group
compound,measurement,setting,value
C=C1C(=O)O[C@H]2C[C@@H](C)[C@@H]3[C@@H](OC(C)=O)C[C@H](O)[C@@]3(C)[C@@H](OC(C)=O)[C@H]12 [Inula lineariifolia lactone A],bioavailability by oral administration,[1],low
same,therapeutic effect on EAE model,[2],good therapeutic effect
"CC(=O)O[C@H]1C[C@H](OC(C)=O)[C@]2(C)[C@@H]1[C@H](C)C[C@@H]1OC(=O)[C@H](CN(C)C)[C@H]1[C@@H]2OC(C)=O [Compound I, dimethylamine 4-O-acetyl inula lineariifolia lactone A]",course of EAE,[3]; 30 mg/kg,ameliorated
same,disease severity (EAE score),"[3]; 30 mg/kg/day intragastrically, from day 0 of immunization, 30 days",reduced
same,onset of EAE,"[3]; 30 mg/kg/day intragastrically, from day 0 of immunization, 30 days, in 0.5% CMC-Na",delayed
same,arrangement of the organization (blood vessel and tissue),[3]; [4],basically returned to normal condition
same,demyelination (LFB staining),[3]; [4],significantly reduced
same,inflammatory cells (H&E analysis),[3]; [4],reduced
same,incidence of EAE,[3],significantly reduce
same,deaths,Mice; single dose 1800 mg/kg,One female mouse died
same,deaths,Mice; single dose 5400 mg/kg,Five mice except one male mouse died
same,toxic reactions,"Mice; single dose 200 and 600 mg/kg, three males and three females per group",No obvious toxic reactions were observed
"CC(=O)O[C@H]1C[C@H](OC(C)=O)[C@]2(C)[C@@H]1[C@H](C)C[C@@H]1OC(=O)[C@H](CN(C)C)[C@H]1[C@@H]2OC(C)=O [Compound IV, dimethylamine 4-O-acetyl inula lineariifolia lactone A fumarate]",onset of EAE,"[3]; crystal type A in injection water, 15 mg/kg once daily oral gavage from day 0",delayed
same,course of EAE,"[3]; crystal type A, 15 mg/kg once daily oral gavage",ameliorated
same,disease severity (EAE score),"[3]; crystal type A, 15 mg/kg once daily oral gavage from day 0",reduced
same,demyelination (LFB staining),"[3]; crystal type A, 15 mg/kg once daily oral gavage, vs EAE model control",significant lower
same,arrangement of the organization (blood vessel and tissue),[3]; [5],basically returned to normal condition
same,inflammatory cells (H&E analysis),[3]; [5],reducing
same,incidence of EAE,[3],significantly reduce
same,toxic reactions,Sprague Dawley rats,No obvious toxic reactions were observed
